# Source: US20250231185A1, “Coronavirus T Cell Epitopes, Megapools and Uses Thereof” (La Jolla Institute for Immunology, priority 2021, published 2025)
# Like-named read-outs stand apart in the source and are kept apart here.
# What was measured:
# CD8+ T cells [1] = experiment: Meta-analysis of published SARS-CoV-2 CD8 T cell epitope data curated in the IEDB (25 studies); type: cell-based, human; conditions: dominant = recognized by 3 or more donors/different studies
# CD8+ T cells [2] = conditions: cited from earlier work
# [3] = SARS-CoV-2-derived CD8 epitopes
# [4] = T cell type (CD4 or CD8) recognizing the SARS-CoV-2 epitope
# [5] = SARS-CoV-2 Ag S, T cell type recognizing the epitope
substance,measurement,setting,value
1033 (SSNVANYQK) [compound 1033],Dominant,CD8+ T cells [1]; [3],Yes (more dominant epitopes are defined by being recognized by 3 or more donors/different studies)
same,Restriction,CD8+ T cells [2]; [4],CD8
1041 (VYIGDPAQL) [compound 1041],Dominant,CD8+ T cells [1]; [3],Yes (more dominant epitopes are defined by being recognized by 3 or more donors/different studies)
same,Restriction,CD8+ T cells [2]; [4],CD8
1042 (IVDTVSALV) [compound 1042],Dominant,CD8+ T cells [1]; [3],Yes (more dominant epitopes are defined by being recognized by 3 or more donors/different studies)
same,Restriction,CD8+ T cells [2]; [4],CD8
1052 (VLWAHGFEL) [compound 1052],Dominant,CD8+ T cells [1]; [3],Yes (more dominant epitopes are defined by being recognized by 3 or more donors/different studies)
same,Restriction,CD8+ T cells [2]; [4],CD8
1053 (TYACWHHSI) [compound 1053],Dominant,CD8+ T cells [1]; [3],Yes (more dominant epitopes are defined by being recognized by 3 or more donors/different studies)
same,Restriction,CD8+ T cells [2]; [4],CD8
1055 (AIMTRCLAV) [compound 1055],Dominant,CD8+ T cells [1]; [3],Yes (more dominant epitopes are defined by being recognized by 3 or more donors/different studies)
same,Restriction,CD8+ T cells [2]; [4],CD8
1056 (IEYPIIGDEL) [compound 1056],Dominant,CD8+ T cells [1]; [3],Yes (more dominant epitopes are defined by being recognized by 3 or more donors/different studies)
same,Restriction,CD8+ T cells [2]; [4],CD8
1057 (ALLADKFPV) [compound 1057],Dominant,CD8+ T cells [1]; [3],Yes (more dominant epitopes are defined by being recognized by 3 or more donors/different studies)
same,Restriction,CD8+ T cells [2]; [4],CD8
1061 (SYATHSDKF) [compound 1061],Dominant,CD8+ T cells [1]; [3],Yes (more dominant epitopes are defined by being recognized by 3 or more donors/different studies)
same,Restriction,CD8+ T cells [2]; [4],CD8
1065 (MMISAGFSL) [compound 1065],Dominant,CD8+ T cells [1]; [3],Yes (more dominant epitopes are defined by being recognized by 3 or more donors/different studies)
same,Restriction,CD8+ T cells [2]; [4],CD8
1067 (KQFDTYNLW) [compound 1067],Dominant,CD8+ T cells [1]; [3],Yes (more dominant epitopes are defined by being recognized by 3 or more donors/different studies)
same,Restriction,CD8+ T cells [2]; [4],CD8
1069 (NLWNTFTRL) [compound 1069],Dominant,CD8+ T cells [1]; [3],Yes (more dominant epitopes are defined by being recognized by 3 or more donors/different studies)
same,Restriction,CD8+ T cells [2]; [4],CD8
1072 (KVDGVDVEL) [compound 1072],Dominant,CD8+ T cells [1]; [3],Yes (more dominant epitopes are defined by being recognized by 3 or more donors/different studies)
same,Restriction,CD8+ T cells [2]; [4],CD8
1082 (LLLDDFVEII) [compound 1082],Dominant,CD8+ T cells [1]; [3],Yes (more dominant epitopes are defined by being recognized by 3 or more donors/different studies)
same,Restriction,CD8+ T cells [2]; [4],CD8
1084 (MLWCKDGHV) [compound 1084],Dominant,CD8+ T cells [1]; [3],Yes (more dominant epitopes are defined by being recognized by 3 or more donors/different studies)
same,Restriction,CD8+ T cells [2]; [4],CD8
1085 (GVAMPNLYK) [compound 1085],Dominant,CD8+ T cells [1]; [3],Yes (more dominant epitopes are defined by being recognized by 3 or more donors/different studies)
same,Restriction,CD8+ T cells [2]; [4],CD8
1087 (KMQRMLLEK) [compound 1087],Dominant,CD8+ T cells [1]; [3],Yes (more dominant epitopes are defined by being recognized by 3 or more donors/different studies)
same,Restriction,CD8+ T cells [2]; [4],CD8
1303 (NYNYLYRLF) [compound 1303],Dominant,"CD8+ T cells [1]; SARS-CoV-2 Ag S, CD8 epitopes",Yes (more dominant epitopes are defined by being recognized by 3 or more donors/different studies)
same,Restriction,CD8+ T cells [2]; [5],CD8
1304 (NYNYLYRLFRK) [compound 1304],Dominant,"CD8+ T cells [1]; SARS-CoV-2 Ag S, CD8 epitopes",Yes (more dominant epitopes are defined by being recognized by 3 or more donors/different studies)
same,Restriction,CD8+ T cells [2]; [5],CD8
1313 (YFPLQSYGF) [compound 1313],Dominant,"CD8+ T cells [1]; SARS-CoV-2 Ag S, CD8 epitopes",Yes (more dominant epitopes are defined by being recognized by 3 or more donors/different studies)
same,Restriction,CD8+ T cells [2]; [5],CD8
1315 (FQPTNGVGY) [compound 1315],Dominant,"CD8+ T cells [1]; SARS-CoV-2 Ag S, CD8 epitopes",Yes (more dominant epitopes are defined by being recognized by 3 or more donors/different studies)
same,Restriction,CD8+ T cells [2]; [5],CD8
1319 (QPYRVVVL) [compound 1319],Dominant,"CD8+ T cells [1]; SARS-CoV-2 Ag S, CD8 epitopes",Yes (more dominant epitopes are defined by being recognized by 3 or more donors/different studies)
same,Restriction,CD8+ T cells [2]; [5],CD8
1321 (SFELLHAPATV) [compound 1321],Dominant,"CD8+ T cells [1]; SARS-CoV-2 Ag S, CD8 epitopes",Yes (more dominant epitopes are defined by being recognized by 3 or more donors/different studies)
same,Restriction,CD8+ T cells [2]; [5],CD8
1324 (GPKKSTNLV) [compound 1324],Dominant,"CD8+ T cells [1]; SARS-CoV-2 Ag S, CD8 epitopes",Yes (more dominant epitopes are defined by being recognized by 3 or more donors/different studies)
same,Restriction,CD8+ T cells [2]; [5],CD8
1342 (IGAEHVNNSY) [compound 1342],Dominant,"CD8+ T cells [1]; SARS-CoV-2 Ag S, CD8 epitopes",Yes (more dominant epitopes are defined by being recognized by 3 or more donors/different studies)
same,Restriction,CD8+ T cells [2]; [5],CD8
1345 (IPIGAGICASY) [compound 1345],Dominant,"CD8+ T cells [1]; SARS-CoV-2 Ag S, CD8 epitopes",Yes (more dominant epitopes are defined by being recognized by 3 or more donors/different studies)
same,Restriction,CD8+ T cells [2]; [5],CD8
1347 (SPRRARSVA) [compound 1347],Dominant,"CD8+ T cells [1]; SARS-CoV-2 Ag S, CD8 epitopes",Yes (more dominant epitopes are defined by being recognized by 3 or more donors/different studies)
same,Restriction,CD8+ T cells [2]; [5],CD8
1350 (SVASQSIIAY) [compound 1350],Dominant,"CD8+ T cells [1]; SARS-CoV-2 Ag S, CD8 epitopes",Yes (more dominant epitopes are defined by being recognized by 3 or more donors/different studies)
same,Restriction,CD8+ T cells [2]; [5],CD8
1351 (VASQSIIAY) [compound 1351],Dominant,"CD8+ T cells [1]; SARS-CoV-2 Ag S, CD8 epitopes",Yes (more dominant epitopes are defined by being recognized by 3 or more donors/different studies)
same,Restriction,CD8+ T cells [2]; [5],CD8
1352 (SIIAYTMSL) [compound 1352],Dominant,"CD8+ T cells [1]; SARS-CoV-2 Ag S, CD8 epitopes",Yes (more dominant epitopes are defined by being recognized by 3 or more donors/different studies)
same,Restriction,CD8+ T cells [2]; [5],CD8
1361 (FTISVTTEIL) [compound 1361],Dominant,"CD8+ T cells [1]; SARS-CoV-2 Ag S, CD8 epitopes",Yes (more dominant epitopes are defined by being recognized by 3 or more donors/different studies)
same,Restriction,CD8+ T cells [2]; [5],CD8
1362 (TEILPVSMTK) [compound 1362],Dominant,"CD8+ T cells [1]; SARS-CoV-2 Ag S, CD8 epitopes",Yes (more dominant epitopes are defined by being recognized by 3 or more donors/different studies)
same,Restriction,CD8+ T cells [2]; [5],CD8
1365 (STECSNLLLQY) [compound 1365],Dominant,"CD8+ T cells [1]; SARS-CoV-2 Ag S, CD8 epitopes",Yes (more dominant epitopes are defined by being recognized by 3 or more donors/different studies)
same,Restriction,CD8+ T cells [2]; [5],CD8
1366 (TECSNLLLQY) [compound 1366],Dominant,"CD8+ T cells [1]; SARS-CoV-2 Ag S, CD8 epitopes",Yes (more dominant epitopes are defined by being recognized by 3 or more donors/different studies)
same,Restriction,CD8+ T cells [2]; [5],CD8
1367 (LLQYGSFCT) [compound 1367],Dominant,"CD8+ T cells [1]; SARS-CoV-2 Ag S, CD8 epitopes",Yes (more dominant epitopes are defined by being recognized by 3 or more donors/different studies)
same,Restriction,CD8+ T cells [2]; [5],CD8
1379 (LLFNKVTLA) [compound 1379],Dominant,"CD8+ T cells [1]; SARS-CoV-2 Ag S, CD8 epitopes",Yes (more dominant epitopes are defined by being recognized by 3 or more donors/different studies)
same,Restriction,CD8+ T cells [2]; [5],CD8
1386 (LTDEMIAQY) [compound 1386],Dominant,"CD8+ T cells [1]; SARS-CoV-2 Ag S, CD8 epitopes",Yes (more dominant epitopes are defined by being recognized by 3 or more donors/different studies)
same,Restriction,CD8+ T cells [2]; [5],CD8
1389 (MIAQYTSAL) [compound 1389],Dominant,"CD8+ T cells [1]; SARS-CoV-2 Ag S, CD8 epitopes",Yes (more dominant epitopes are defined by being recognized by 3 or more donors/different studies)
same,Restriction,CD8+ T cells [2]; [5],CD8
1392 (LQIPFAMQMAY) [compound 1392],Dominant,"CD8+ T cells [1]; SARS-CoV-2 Ag S, CD8 epitopes",Yes (more dominant epitopes are defined by being recognized by 3 or more donors/different studies)
same,Restriction,CD8+ T cells [2]; [5],CD8
1396 (TQNVLYENQK) [compound 1396],Dominant,"CD8+ T cells [1]; SARS-CoV-2 Ag S, CD8 epitopes",Yes (more dominant epitopes are defined by being recognized by 3 or more donors/different studies)
same,Restriction,CD8+ T cells [2]; [5],CD8
1398 (NQKLIANQF) [compound 1398],Dominant,"CD8+ T cells [1]; SARS-CoV-2 Ag S, CD8 epitopes",Yes (more dominant epitopes are defined by being recognized by 3 or more donors/different studies)
same,Restriction,CD8+ T cells [2]; [5],CD8
1401 (AQALNTLVKQL) [compound 1401],Dominant,"CD8+ T cells [1]; SARS-CoV-2 Ag S, CD8 epitopes",Yes (more dominant epitopes are defined by being recognized by 3 or more donors/different studies)
same,Restriction,CD8+ T cells [2]; [5],CD8
1405 (VLNDILSRL) [compound 1405],Dominant,"CD8+ T cells [1]; SARS-CoV-2 Ag S, CD8 epitopes",Yes (more dominant epitopes are defined by being recognized by 3 or more donors/different studies)
same,Restriction,CD8+ T cells [2]; [5],CD8
1421 (YHLMSFPQSA) [compound 1421],Dominant,"CD8+ T cells [1]; SARS-CoV-2 Ag S, CD8 epitopes",Yes (more dominant epitopes are defined by being recognized by 3 or more donors/different studies)
same,Restriction,CD8+ T cells [2]; [5],CD8
1422 (HLMSFPQSA) [compound 1422],Dominant,"CD8+ T cells [1]; SARS-CoV-2 Ag S, CD8 epitopes",Yes (more dominant epitopes are defined by being recognized by 3 or more donors/different studies)
same,Restriction,CD8+ T cells [2]; [5],CD8
1425 (FPQSAPHGVVF) [compound 1425],Dominant,"CD8+ T cells [1]; SARS-CoV-2 Ag S, CD8 epitopes",Yes (more dominant epitopes are defined by being recognized by 3 or more donors/different studies)
same,Restriction,CD8+ T cells [2]; [5],CD8
1428 (APHGVVFLHV) [compound 1428],Dominant,"CD8+ T cells [1]; SARS-CoV-2 Ag S, CD8 epitopes",Yes (more dominant epitopes are defined by being recognized by 3 or more donors/different studies)
same,Restriction,CD8+ T cells [2]; [5],CD8
